# Source: BindingDB's records for doi:10.1073/pnas.0707365104 (Institut National De La Sant&#163, 2007)
# Assay: Inhibition of human telomerase expressed in HEK293T cells treated after telomerase elongation by telomeric repeat amplification protocol assay
compound,measurement,value
"CN(C)c1ccc(Nc2c3ccc(NC(=O)CCN4CCCC4)cc3nc3cc(NC(=O)CCN4CCCC4)ccc23)cc1 [N,N'-(9-{[4-(dimethylamino)phenyl]amino}acridine-3,6-diyl)bis(3-pyrrolidin-1-ylpropanamide)]",IC50,65 nM
